Structures are written as SMILES.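 Grown in 96-well plates, cells were treated for 48 hours with each compound at five concentrations. Insufficient inhibition: endpoint recorded as highest concentration tested. GI50 is the concentration that inhibits growth by half. TGI is the concentration that stops growth completely.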

Test systems include HCT-15 colon; A549 NSCLC; OVCAR-3 ovarian; DU-145 prostate; HCT-116 colon; MOLT-4 leukemia; NCI-H522 lung; CAKI-1 renal; SF-295 CNS; EKVX NSCLC.
What all share (test): NCI anticancer screen, dose series, 48 h

On to `Cc1nc2sc3c(N)ncnc3c2c(C)c1C`, for which the GI50 with HCT-15 colon, in the assay with A549 NSCLC, with OVCAR-3 ovarian, in the assay on DU-145 prostate, in the assay on HCT-116 colon and in the assay with MOLT-4 leukemia was above 25 µM throughout. Further, the GI50 in the assay on NCI-H522 lung, with CAKI-1 renal and with SF-295 CNS was above 25 µM in each case. In addition, the TGI with HCT-15 colon, with A549 NSCLC, in the assay on OVCAR-3 ovarian, in the assay with DU-145 prostate, in the assay with HCT-116 colon and in the assay on MOLT-4 leukemia was above 25 µM each time. Besides, the TGI with NCI-H522 lung, in the assay with CAKI-1 renal and with SF-295 CNS was above 25 µM throughout.

Consider `CCOC(=O)c1c(C)nc2c(c1N)/C(=C/c1ccccn1)C(=O)N2Cc1ccccc1`, for which the GI50 with HCT-15 colon is 1.07 µM; in the assay on A549 NSCLC it was 2.52 µM; in the assay with EKVX NSCLC it was 1.21 µM; with OVCAR-3 ovarian, 0.9 µM; in the assay with HCT-116 colon it was 0.847 µM; in the assay on MOLT-4 leukemia it was 1.72 µM. Further, the GI50 in the assay on NCI-H522 lung was 1.06 µM; in the assay on SF-295 CNS, 1.9 µM. In addition, the TGI in the assay on HCT-15 colon was 2.63 µM; in the assay with A549 NSCLC, above 50 µM; in the assay with EKVX NSCLC it was above 50 µM; in the assay on OVCAR-3 ovarian, 1.71 µM; with HCT-116 colon it was 1.62 µM; in the assay with MOLT-4 leukemia it was above 50 µM. Also, the TGI with NCI-H522 lung is 2.89 µM; in the assay on SF-295 CNS, above 50 µM.

`C(=C\C(Sc1ccccc1)c1ccccc1)/NNC1=NC(c2ccccc2)C(c2ccccc2)=NN1` (stereo not given): the TGI with HCT-15 colon was above 100 µM; in the assay with A549 NSCLC, above 100 µM; in the assay with EKVX NSCLC it was above 100 µM; with OVCAR-3 ovarian it was above 100 µM; in the assay with HCT-116 colon it was above 100 µM; in the assay with MOLT-4 leukemia, 77.9 µM. Also, the TGI in the assay with NCI-H522 lung, in the assay with CAKI-1 renal and with SF-295 CNS was above 100 µM in each case.

With `c1ccc2c(c1)Cc1c(Cc3csc4ccccc34)ccc3cccc-2c13`, the TGI in the assay with HCT-15 colon, in the assay with A549 NSCLC, in the assay on EKVX NSCLC, in the assay with OVCAR-3 ovarian, in the assay with HCT-116 colon and in the assay with MOLT-4 leukemia was above 100 µM each time. In addition, the TGI with NCI-H522 lung and with SF-295 CNS was above 100 µM each time.

For `CCOC(=O)c1[nH]c2cc(OC)c(OC)cc2c1CN(C)C`, the TGI in the assay on HCT-15 colon, in the assay on A549 NSCLC, in the assay on EKVX NSCLC, with HCT-116 colon, with MOLT-4 leukemia and in the assay on CAKI-1 renal was above 100 µM each time. The same compound had a TGI in the assay with SF-295 CNS above 100 µM.

Consider `Cc1ccc(N=C2N=C(N3CC(C)OC(C)C3)c3ccccc32)cc1` (stereo not given), for which the TGI in the assay on HCT-15 colon was above 100 µM; in the assay on A549 NSCLC it was above 100 µM; with EKVX NSCLC it was above 100 µM; in the assay with OVCAR-3 ovarian, 73.4 µM; in the assay with HCT-116 colon, 48.8 µM; in the assay on MOLT-4 leukemia, 47.8 µM. For the same compound, the TGI with CAKI-1 renal was 51 µM; in the assay on SF-295 CNS, above 100 µM.

For the compound `O=C(N/C(=C\c1ccccc1O)c1nc2ccccc2[nH]1)c1ccccc1`, the TGI in the assay on HCT-15 colon, in the assay with A549 NSCLC, in the assay with EKVX NSCLC, with OVCAR-3 ovarian, with HCT-116 colon and with MOLT-4 leukemia was above 100 µM throughout. The TGI in the assay on NCI-H522 lung and in the assay on CAKI-1 renal was above 100 µM in each case.

Consider `COc1ccc(O)cc1C(O)c1ccccc1` (stereo not given), for which the TGI with HCT-15 colon, in the assay on A549 NSCLC, in the assay on EKVX NSCLC, in the assay on OVCAR-3 ovarian, in the assay on HCT-116 colon and with MOLT-4 leukemia was above 100 µM throughout. Also, the TGI in the assay with NCI-H522 lung, in the assay on CAKI-1 renal and in the assay with SF-295 CNS was above 100 µM each time.

As to `CC(=O)NNc1nc(C)c(C(=O)NNC(=O)C(=O)Nc2c([N+](=O)[O-])ccc(C)c2C)s1`, the TGI in the assay on HCT-15 colon, in the assay with A549 NSCLC, in the assay on EKVX NSCLC, in the assay with OVCAR-3 ovarian, with HCT-116 colon and in the assay with MOLT-4 leukemia was above 100 µM throughout. Further, the TGI with NCI-H522 lung, with CAKI-1 renal and in the assay with SF-295 CNS was above 100 µM throughout.

`CC(=O)c1ccccc1NC(=O)C(=O)C(C(=O)c1ccccc1-c1ccccc1)C1OC(=O)c2ccccc21` (stereo not given): the TGI with HCT-15 colon came to 34.9 µM; in the assay on A549 NSCLC, 80.4 µM; with EKVX NSCLC it was 65 µM; in the assay on OVCAR-3 ovarian it was 48.1 µM; with HCT-116 colon, 32.5 µM; in the assay with MOLT-4 leukemia it was 93 µM. Further, the TGI in the assay on NCI-H522 lung is 31 µM; in the assay with CAKI-1 renal it was above 100 µM; in the assay with SF-295 CNS it was 52.4 µM.

For the compound `CCOC(=N)CC(=O)Nc1ccccc1`, the TGI in the assay with HCT-15 colon was above 46.4 µM; with A549 NSCLC it was above 46.4 µM; with EKVX NSCLC, above 100 µM; with OVCAR-3 ovarian, above 31.6 µM; in the assay on HCT-116 colon, above 46.4 µM; in the assay on MOLT-4 leukemia, above 31.6 µM. Further, the TGI with NCI-H522 lung, in the assay on CAKI-1 renal and in the assay with SF-295 CNS was above 100 µM each time.

For `CC1(C)C(=O)C(C)(C)C1=NNC(N)=S`, the TGI in the assay on HCT-15 colon, with A549 NSCLC, in the assay on OVCAR-3 ovarian, in the assay on HCT-116 colon, in the assay on MOLT-4 leukemia and in the assay with NCI-H522 lung was above 100 µM in each case. The TGI in the assay with CAKI-1 renal and in the assay with SF-295 CNS was above 100 µM each time.

As to `CCCCCCCCCCCCCCCC(=O)OCCOCCOCCOCCOCCOC(=O)CCCCCCCCCCCCCCC`, the TGI with HCT-15 colon, in the assay with A549 NSCLC, in the assay with EKVX NSCLC, with OVCAR-3 ovarian, in the assay on HCT-116 colon and with MOLT-4 leukemia was above 100 µM each time. The TGI in the assay on NCI-H522 lung, in the assay on CAKI-1 renal and with SF-295 CNS was above 100 µM throughout.

Consider `CCc1cc2c(O)c(c1)Cc1cc(CC)cc(c1O)Cc1cc(CC)cc(c1O)Cc1cc(CC)cc(c1O)Cc1cc(CC)cc(c1O)Cc1cc(CC)cc(c1O)Cc1cc(CC)cc(c1O)C2`, for which the TGI with HCT-15 colon, in the assay on A549 NSCLC, in the assay on EKVX NSCLC, in the assay with OVCAR-3 ovarian, in the assay on HCT-116 colon and in the assay with MOLT-4 leukemia was above 100 µM throughout. Also, the TGI in the assay on NCI-H522 lung and in the assay on SF-295 CNS was above 100 µM throughout.
